{"source": "patent US20050249795A1", "about": "“Gemcitabine compositions for better drug delivery” (NEOPHARM, INC., priority 2002, published 2005)", "origin": "cited, not measured here", "key": {"[1]": {"settings": "in patients"}, "[2]": {"system": "LX-1 human lung xenografts", "settings": "in vivo, LX-1 human lung xenograft"}, "[3]": {"system": "CALU-6 human lung xenografts", "settings": "in vivo, CALU-6 human lung xenograft"}, "[4]": {"system": "NCI-H460 xenografts", "settings": "in vivo, NCI-H460 xenograft"}, "[5]": {"system": "NCI-H520 xenografts", "settings": "in vivo, NCI-H520 xenograft"}, "[6]": {"system": "Lewis lung murine xenograft"}, "[7]": {"system": "CEM T lymphoblastoid cells"}}, "note": "Where a name gives a salt, the structure may show the parent alone.", "data": [{"molecule": "Nc1ccn([C@@H]2O[C@H](CO)[C@@H](O)C2(F)F)c(=O)n1", "note": "[Gemcitabine HCL, gemcitabine hydrochloride]", "values": [{"measurement": "half-life", "setting": "[1]", "result": "very short half-life"}]}, {"molecule": "Nc1ccn([C@@H]2O[C@H](CO)[C@@H](O)C2(F)F)c(=O)n1", "note": "[Gemcitabine]", "values": [{"measurement": "activity with cisplatin in vitro", "result": "dose-dependent synergistic activity"}, {"measurement": "activity in combination with cisplatin", "setting": "[2]", "result": "showed activity"}, {"measurement": "activity in combination with cisplatin", "setting": "[3]", "result": "showed activity"}, {"measurement": "activity in combination with cisplatin", "setting": "[4]", "result": "minimal activity"}, {"measurement": "activity in combination with cisplatin", "setting": "[5]", "result": "minimal activity"}, {"measurement": "interaction with cisplatin", "setting": "[6]", "result": "synergistic"}, {"measurement": "internucleosomal DNA fragmentation", "setting": "[7]", "result": "induces internucleosomal DNA fragmentation"}]}]}
